The text below walks through data of patent US7786174B2, “Methods and compounds for inhibiting amyloid deposits” (Bellus Health (International) Limited, priority 1999, dated 2010).

One assay addresses T1, IAPP (Homo sapiens, UniProt P10997).
T1 construct: add 10 μL of 10 mg/mL IAPP stock solution (final 100 μg peptide)
T1 sequence (P10997 34-70 limits assumed): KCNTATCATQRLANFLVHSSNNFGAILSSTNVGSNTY
Put plainly: Circular dichroism analysis of IAPP-associated fibril formation (β-sheet conformation), co-incubation procedure. The assay is classed as biochemical. Particulars: change in ellipticity at 218 nm vs peptide-only control; molar ratio 1:10 peptide:compound; water or 10 mM phosphate buffer pH 7; relative value active / not active. As for the experimental part:
Cell/cuvette: Hellma quartz (QS) with 1.0 mm pathlength
Wavelength interval: 250 nm-190 nm
Scanning speed: 20 nm/min
The assay, a co-incubation procedure, examines the ability of a compound or substance to inhibit the assembly of amyloid fibrils, e.g., to test for the presence of the amyloidotic β-sheet conformation in the presence of soluble IAPP. Samples are run in the presence and absence (i.e., water alone) of buffering agent, which is done to determine if competitive effects are seen with the ionic buffer (usually phosphate).
Add components used at a molar ratio of 1:10 [peptide:compound]; add 10 μL of 10 mg/mL IAPP stock solution (final 100 μg peptide) to the aqueous solution containing compound to a final volume of 400 μl. The pH of the final assay solution is measured to ensure there is no fluctuation and the spectrum is accumulated using the parameters as shown above.
Add desired amount of compound to achieve a 1:10 molar ratio in 10 mM phosphate buffer, pH 7. Add 10 μL of 10 mg/mL IAPP stock solution (final peptide 100 μg) to the phosphate buffered solution containing the compound and bring to a final volume of 400 μL. The pH of the final assay solution is measured to ensure there is no fluctuation and the spectrum is accumulated using the parameters as shown above.
In both assays, a control sample is run with each test group.
Make fresh 1 mg/mL stock solution of IAPP in 10 mM phosphate buffer, pH 7. Add desired amount of compound to achieve a 1:10 molar ratio in 10 mM phosphate buffer, pH 7. Incubate for 3 days at room temperature. Make up to final volume of 400 μL with 10 mM phosphate buffer, pH 7. The pH of the final assay solution is measured to ensure there is no fluctuation and the spectrum is accumulated using the parameters as shown above.
Plots of the spectra (control and treated) are individually assembled and the changes in ellipticity at 218 nm are examined. This minimum is directly correlated with the amount of β-sheet present in the sample.
A general note: Circular dichroism is widely used to follow secondary structure.

The next assay addresses T2, Synthetic human IAPP (Homo sapiens, UniProt P10997).
T2 construct: Synthetic human IAPP (Bachem) was dissolved in 40% trifluoroethanol and freeze-dried; purchased Bachem; host or cells: chemical synthesis
T2 sequence (P10997 34-70 limits assumed): T1 sequence (P10997 34-70 limits assumed)
Briefly: Rate of amyloid fibril formation by Thioflavine T (ThT) spectroscopy. Particulars: ThT 62.5 μM; excitation 440 nm, emission 482 nm; readings from 5 min, over 4-6 h and after overnight at room temperature. In kind it is biochemical. Here is the method:
Determination of the Rate of Amyloid Fibril Formation by Thioflavine T Spectroscopy
Detection of ThT fluorescence can be used as a sensitive assay for amyloid fibril formation under different conditions.
Synthetic human IAPP (Bachem) was dissolved in 40% trifluoroethanol and freeze-dried into conveniently-sized aliquots. IAPP was prepared immediately before the measurements by dissolving in 40% 1,1,1,3,3,3-hexafluoro-2-propanol (HFIP) in water to maintain the peptide in alpha helical conformation and soluble. A stock solution of ThT (2.5 mM) was prepared, 7.9 mg in 10 mL Tris-HCl pH 7.0 and filtered (0.22 μm). Solutions were kept in the dark until use. Fluorescence was examined at 440 nm excitation (slit 5 nm), and emission at 482 nm (slit 10 nm) with stirring. […] The sample was stirred for 5 min. before taking a reading. Measurements were made at an initial time point (5 min. from sample preparation), at intervals over the next 4-6 h and after overnight incubation at room temperature.

As for `Cl.c1ccc2c(c1)CCNC2` [1,2,3,4-tetrahydroisoquinoline, HCl], the outcome on IAPP was Active. For the same compound, the “effect on IAPP-associated fibril assembly (ThT fluorescence)” value (from here on “effect”) on Synthetic human IAPP is recorded as “inhibit or prevent IAPP-associated fibril assembly”.
Turning to `O=S(=O)(O)CCCNCCCO` [3-(3-hydroxy-1-propyl)amino-1-propanesulfonic acid], the result on IAPP was Active. In addition, the “effect” value at Synthetic human IAPP was “inhibit or prevent IAPP-associated fibril assembly”.
For `NCC(O)CS(=O)(=O)O` (stereo not drawn) [3-amino-2-hydroxy-1-propanesulfonic acid], in that order: “Active” and “inhibit or prevent IAPP-associated fibril assembly”.
Consider `CN(C)CCCS(=O)(=O)O` [3-dimethylamino-1-propanesulfonic acid], for which, on IAPP, the result was Active. Moreover, the “effect” value at Synthetic human IAPP was “inhibit or prevent IAPP-associated fibril assembly”.
For `O=S(=O)([O-])CCCN1CC=C(c2ccccc2)CC1.[Na+]` [4-phenyl-1-(3′-sulfopropyl)-1,2,3,6-tetrahydropyridine, sodium salt], in that order: “Active” and “inhibit or prevent IAPP-associated fibril assembly”.
The like results for `COc1ccc(S(=O)(=O)[O-])c2cccnc12.[Na+]` [8-methoxyquinoline-5-sulfonic acid, sodium salt] were, in that order, “Active” and “inhibit or prevent IAPP-associated fibril assembly”.
Take `N[C@@H](COP(=O)(O)O)C(=O)O` [O-phospho-L-serine]: at IAPP, the outcome was Active. Moreover, the “effect” value on Synthetic human IAPP was “inhibit or prevent IAPP-associated fibril assembly”.
For the compound `O=S(=O)([O-])NC1CCCCC1.[Na+]` [cyclohexylsulfamic acid, sodium salt], at IAPP, the outcome was Active. Also, the “effect” value on Synthetic human IAPP is reported as “inhibit or prevent IAPP-associated fibril assembly”.
With `O=C(O)C(F)(F)C(F)(F)C(F)(F)C(=O)O` [hexafluoroglutaric acid], the outcome at IAPP was Active. The “effect” value at Synthetic human IAPP was “inhibit or prevent IAPP-associated fibril assembly”.
